From patent publication US12252524B2, “GIP/GLP1 co-agonist compounds” (Eli Lilly and Company, priority 2018, dated 2025)
Numbered stars: 1 amine (or outer) side, 2 acyl side, 3 side chain; on linkers, the order of the positions; unused ones are H or OH. Square brackets hold non-standard residues; d marks the D form. Side chains are listed from the residue outwards. Peptide text beside a SMILES is read from it. * marks the point of attachment. C20 diacid = O=C(O)CCCCCCCCCCCCCCCCCCC(=O)*; γGlu = O=C(O)[C@H](CCC(=O)[*:2])N[*:1]; αMeF = C[C@](N)(Cc1ccccc1)C(=O)O; αMeL = CC(C)C[C@](C)(N)C(=O)O; AEEA = NCCOCCOCC(=O)O; Aib = CC(C)(N)C(=O)O

Legend:
human GLP-1R = human GLP-1R (Homo sapiens, UniProt P43220); test: [125I]-GLP-1 binding (SPA), human GLP-1 receptor; parameters: expressed in transfected cells; crude membranes; details: read-out: hGLP1R Ki, (nM) (SEM, n)
Summary of the method: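 Assay buffer: HEPES 25 mM, pH 7.4, CaCl2 2.5 mM, MgCl2 1 mM, with EDTA-free protease inhibitors. Receptor came from crude cell membranes prepared by homogenization and centrifugation at 4° C. IC50s came from four-parameter fits (maximum, minimum, IC50, Hill slope) and were expressed as Ki geometric means with SEM.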

[1] = biological target: T1, gastric inhibitory peptide receptor (GIPR) (Homo sapiens, UniProt P48546); test: cAMP pharmacological functional assay in presence of casein, hGIPR; assay type: cell-based; details: HEK293 cells expressing hGIPR, 0.1% Casein, geometric mean; read-out: hGIPR cAMP Rel EC50 nM (SEM, n)
T1 sequence (P48546 22-466): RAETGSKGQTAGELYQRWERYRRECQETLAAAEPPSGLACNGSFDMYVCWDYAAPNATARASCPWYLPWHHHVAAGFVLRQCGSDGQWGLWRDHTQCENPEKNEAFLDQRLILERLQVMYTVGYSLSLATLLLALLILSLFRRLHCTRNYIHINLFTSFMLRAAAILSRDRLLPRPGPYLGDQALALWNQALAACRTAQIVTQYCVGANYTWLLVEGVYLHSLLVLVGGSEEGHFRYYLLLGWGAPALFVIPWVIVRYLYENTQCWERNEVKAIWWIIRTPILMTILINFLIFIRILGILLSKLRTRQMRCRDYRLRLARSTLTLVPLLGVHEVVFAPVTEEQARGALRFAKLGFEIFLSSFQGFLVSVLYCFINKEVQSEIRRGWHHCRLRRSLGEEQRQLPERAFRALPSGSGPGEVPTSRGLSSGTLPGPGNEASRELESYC

[2] = biological target: human GLP-1 receptor (GLP-1R) (Homo sapiens, UniProt P43220); test: cAMP pharmacological functional assay in presence of casein, hGLP-1R; assay type: cell-based; details: HEK293 cells expressing hGLP-1R, 0.1% Casein, geometric mean; read-out: hGLP1R cAMP Rel EC50 nM (SEM, n)
human Gcg receptor = biological target: T2, human Gcg receptor (Homo sapiens, UniProt P47871); test: [125I]-Glucagon binding (SPA), human Gcg receptor; details: read-out: hGLcgR Ki, nM (SEM, n)
T2 construct: expressed in transfected cells; crude membranes
Summary of the method: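 Cell pellets were lysed in hypotonic Tris buffer, pH 7.5, homogenized, and spun at low then high speed to give crude membranes. Ki was derived from the fitted IC50.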

human GIP receptor = biological target: T3, human GIP receptor (Homo sapiens, UniProt P48546); test: [125I]-GIP binding (SPA), human GIP receptor; details: read-out: hGIPR Ki, nM (SEM, n)
T3 construct: expressed in transfected cells; crude membranes
T3 sequence (P48546 22-466): T1 sequence (P48546 22-466)

Sequence of human GLP-1 receptor (GLP-1R) (P43220 24-463): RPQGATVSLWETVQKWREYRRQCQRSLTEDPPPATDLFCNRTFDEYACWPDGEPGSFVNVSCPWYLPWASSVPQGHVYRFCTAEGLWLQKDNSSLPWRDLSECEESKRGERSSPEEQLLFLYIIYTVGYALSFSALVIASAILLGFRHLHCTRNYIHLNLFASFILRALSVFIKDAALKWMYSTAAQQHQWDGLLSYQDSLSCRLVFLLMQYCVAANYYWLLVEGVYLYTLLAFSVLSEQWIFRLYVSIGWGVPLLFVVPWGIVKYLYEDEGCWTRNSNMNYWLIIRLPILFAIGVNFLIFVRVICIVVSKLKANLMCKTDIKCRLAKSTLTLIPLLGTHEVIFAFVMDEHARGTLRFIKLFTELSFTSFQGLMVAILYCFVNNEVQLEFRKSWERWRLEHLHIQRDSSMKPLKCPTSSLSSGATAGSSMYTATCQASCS
Sequence of human GLP-1R (P43220 24-463): as above
T2 sequence (P47871 26-477): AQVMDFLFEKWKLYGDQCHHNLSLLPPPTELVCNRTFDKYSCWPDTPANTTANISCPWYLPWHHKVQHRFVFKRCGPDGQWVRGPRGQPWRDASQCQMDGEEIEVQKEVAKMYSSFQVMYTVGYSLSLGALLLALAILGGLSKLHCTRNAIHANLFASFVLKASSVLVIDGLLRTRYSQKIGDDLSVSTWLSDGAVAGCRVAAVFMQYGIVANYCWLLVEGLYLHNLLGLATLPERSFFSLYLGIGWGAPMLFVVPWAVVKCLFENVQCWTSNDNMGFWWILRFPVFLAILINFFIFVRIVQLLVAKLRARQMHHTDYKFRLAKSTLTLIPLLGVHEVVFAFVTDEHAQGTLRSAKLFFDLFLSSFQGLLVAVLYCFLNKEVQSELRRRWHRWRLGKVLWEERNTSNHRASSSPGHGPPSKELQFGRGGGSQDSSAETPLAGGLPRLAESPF

| SMILES | Ki (human GLP-1R) | EC50 [1] | EC50 [2] | Ki (human Gcg receptor) | Ki (human GIP receptor) |
| --- | --- | --- | --- | --- | --- |
| CC[C@H](C)[C@H](NC(=O)[C@H](CC(C)C)NC(=O)[C@H](Cc1ccc(O)cc1)NC(=O)[C@H](CCC(=O)O)NC(=O)[C@@H](NC(=O)[C@H](Cc1ccccc1)NC(=O)[C@H](C)NC(=O)C(C)(C)NC(=O)[C@H](CCC(N)=O)NC(=O)[C@H](C)NC(=O)[C@H](CCCCNC(=O)COCCOCCNC(=O)COCCOCCNC(=O)CC[C@H](NC(=O)CCCCCCCCCCCCCCCCCCC(=O)O)C(=O)O)NC(=O)[C@H](CCCCN)NC(=O)[C@H](CC(=O)O)NC(=O)[C@H](CC(C)C)NC(=O)[C@H](CC(C)C)NC(=O)[C@@H](NC(=O)[C@H](CO)NC(=O)[C@H](Cc1ccc(O)cc1)NC(=O)[C@H](CC(=O)O)NC(=O)[C@H](CO)NC(=O)[C@@H](NC(=O)[C@H](Cc1ccccc1)NC(=O)[C@@H](NC(=O)CNC(=O)[C@H](CCCC(=O)O)NC(=O)C(C)(C)NC(=O)[C@@H](N)Cc1ccc(O)cc1)[C@@H](C)O)[C@@H](C)O)[C@@H](C)CC)[C@@H](C)CC)C(=O)N[C@@H](CCC(=O)O)C(=O)NCC(=O)NCC(=O)N1CCC[C@H]1C(=O)N[C@@H](CO)C(=O)N[C@@H](CO)C(=O)NCC(=O)N[C@@H](C)C(=O)N1CCC[C@H]1C(=O)N1CCC[C@H]1C(=O)N1CCC[C@H]1C(=O)N[C@@H](CO)C(N)=O [Example 89] | 2.64 nM | 0.119 nM | 0.335 nM | 324 nM | 0.045 nM |
| CC[C@H](C)[C@H](NC(=O)[C@H](CC(C)C)NC(=O)[C@H](Cc1ccc(O)cc1)NC(=O)[C@H](CCC(=O)O)NC(=O)[C@@H](NC(=O)[C@H](Cc1ccccc1)NC(=O)[C@H](C)NC(=O)C(C)(C)NC(=O)[C@H](CCC(N)=O)NC(=O)[C@H](C)NC(=O)[C@H](CCCCNC(=O)COCCOCCNC(=O)COCCOCCNC(=O)CC[C@H](NC(=O)CCCCCCCCCCCCCCCCCCC(=O)O)C(=O)O)NC(=O)[C@H](CCCCN)NC(=O)[C@H](CC(=O)O)NC(=O)[C@H](CC(C)C)NC(=O)[C@H](CC(C)C)NC(=O)[C@@H](NC(=O)[C@H](CO)NC(=O)[C@H](Cc1ccc(O)cc1)NC(=O)[C@H](CC(=O)O)NC(=O)[C@H](CO)NC(=O)[C@@H](NC(=O)[C@H](Cc1ccccc1)NC(=O)[C@@H](NC(=O)CNC(=O)[C@H](CC(N)=O)NC(=O)C(C)(C)NC(=O)[C@@H](N)Cc1ccc(O)cc1)[C@@H](C)O)[C@@H](C)O)[C@@H](C)CC)[C@@H](C)CC)C(=O)N[C@@H](CCC(=O)O)C(=O)NCC(=O)NCC(=O)N1CCC[C@H]1C(=O)N[C@@H](CO)C(=O)N[C@@H](CO)C(=O)NCC(=O)N[C@@H](C)C(=O)N1CCC[C@H]1C(=O)N1CCC[C@H]1C(=O)N1CCC[C@H]1C(=O)N[C@@H](CO)C(N)=O [Example 90] (H-Y[Aib]NGTFTSDYSILLDKK([AEEA-AEEA-γGlu-C20 diacid])AQ[Aib]AFIEYLIEGGPSSGAPPPS-NH2; N-terminus assumed) | 4.76 nM | 0.0361 nM | 0.532 nM | 245 nM | 0.0472 nM |
| CC[C@H](C)[C@H](NC(=O)[C@H](CC(C)C)NC(=O)[C@H](Cc1ccc(O)cc1)NC(=O)[C@H](CCC(=O)O)NC(=O)[C@@H](NC(=O)[C@H](Cc1ccccc1)NC(=O)[C@H](C)NC(=O)C(C)(C)NC(=O)[C@H](CCC(N)=O)NC(=O)[C@H](C)NC(=O)[C@H](CCCCNC(=O)COCCOCCNC(=O)COCCOCCNC(=O)CC[C@H](NC(=O)CCCCCCCCCCCCCCCCCCC(=O)O)C(=O)O)NC(=O)[C@H](CCCCN)NC(=O)[C@H](CC(=O)O)NC(=O)[C@H](CC(C)C)NC(=O)[C@H](CC(C)C)NC(=O)[C@@H](NC(=O)[C@H](CO)NC(=O)[C@H](Cc1ccc(O)cc1)NC(=O)[C@H](CC(=O)O)NC(=O)[C@H](CO)NC(=O)[C@@H](NC(=O)[C@H](Cc1ccccc1)NC(=O)[C@@H](NC(=O)CNC(=O)CC[C@H](NC(=O)C(C)(C)NC(=O)[C@@H](N)Cc1ccc(O)cc1)C(=O)O)[C@@H](C)O)[C@@H](C)O)[C@@H](C)CC)[C@@H](C)CC)C(=O)N[C@@H](CCC(=O)O)C(=O)NCC(=O)NCC(=O)N1CCC[C@H]1C(=O)N[C@@H](CO)C(=O)N[C@@H](CO)C(=O)NCC(=O)N[C@@H](C)C(=O)N1CCC[C@H]1C(=O)N1CCC[C@H]1C(=O)N1CCC[C@H]1C(=O)N[C@@H](CO)C(N)=O [Example 91] | 5.23 nM | 19.2 nM | > 5000 nM | 540 nM | 1.8 nM |
| CC[C@H](C)[C@H](NC(=O)[C@H](CCCCN)NC(=O)[C@H](CC(=O)O)NC(=O)[C@H](CCCCNC(=O)COCCOCCNC(=O)COCCOCCNC(=O)CC[C@H](NC(=O)CCCCCCCCCCCCCCCCCCC(=O)O)C(=O)O)NC(=O)[C@H](CC(C)C)NC(=O)[C@@H](NC(=O)[C@H](CO)NC(=O)[C@H](Cc1ccc(O)cc1)NC(=O)[C@H](CC(=O)O)NC(=O)[C@H](CO)NC(=O)[C@@H](NC(=O)[C@](C)(Cc1ccccc1)NC(=O)[C@@H](NC(=O)CNC(=O)[C@H](CCC(=O)O)NC(=O)C(C)(C)NC(=O)[C@@H](N)Cc1ccc(O)cc1)[C@@H](C)O)[C@@H](C)O)[C@@H](C)CC)C(=O)N[C@@H](C)C(=O)N[C@@H](CCC(N)=O)C(=O)NC(C)(C)C(=O)N[C@@H](C)C(=O)N[C@@H](Cc1ccccc1)C(=O)N[C@H](C(=O)N[C@@H](CCC(=O)O)C(=O)N[C@@H](Cc1ccc(O)cc1)C(=O)N[C@@H](CC(C)C)C(=O)N[C@H](C(=O)N[C@@H](CCC(=O)O)C(=O)NCC(=O)NCC(N)=O)[C@@H](C)CC)[C@@H](C)CC [Example 93] (H-Y[Aib]EGT[αMeF]TSDYSILK([AEEA-AEEA-γGlu-C20 diacid])DKIAQ[Aib]AFIEYLIEGG-NH2) | 1.89 nM | 0.185 nM | 0.115 nM | 15.7 nM | 0.0859 nM |
| CC[C@H](C)[C@H](NC(=O)[C@H](CC(C)C)NC(=O)[C@H](Cc1ccc(O)cc1)NC(=O)[C@H](CCC(=O)O)NC(=O)[C@@H](NC(=O)[C@H](Cc1ccccc1)NC(=O)[C@H](C)NC(=O)C(C)(C)NC(=O)[C@H](CCC(N)=O)NC(=O)[C@H](C)NC(=O)[C@H](CCCCNC(=O)COCCOCCNC(=O)COCCOCCNC(=O)CC[C@H](NC(=O)CCCCCCCCCCCCCCCCCCC(=O)O)C(=O)O)NC(=O)[C@H](CCCCN)NC(=O)[C@H](CC(=O)O)NC(=O)[C@H](CC(C)C)NC(=O)[C@](C)(CC(C)C)NC(=O)[C@@H](NC(=O)[C@H](CO)NC(=O)[C@H](Cc1ccc(O)cc1)NC(=O)[C@H](CC(=O)O)NC(=O)[C@H](CO)NC(=O)[C@@H](NC(=O)[C@](C)(Cc1ccccc1)NC(=O)[C@@H](NC(=O)CNC(=O)[C@H](CCC(=O)O)NC(=O)C(C)(C)NC(=O)[C@@H](N)Cc1ccc(O)cc1)[C@@H](C)O)[C@@H](C)O)[C@@H](C)CC)[C@@H](C)CC)C(=O)N[C@@H](CCC(=O)O)C(=O)NCC(=O)NCC(N)=O [Example 99] (H-Y[Aib]EGT[αMeF]TSDYSI[αMeL]LDKK([AEEA-AEEA-γGlu-C20 diacid])AQ[Aib]AFIEYLIEGG-NH2) | 1.15 nM | 0.0643 nM | 0.0986 nM | 23.6 nM | 0.027 nM |
| CC[C@H](C)[C@H](NC(=O)[C@H](CC(C)C)NC(=O)[C@H](Cc1ccc(O)cc1)NC(=O)[C@H](CCC(=O)O)NC(=O)[C@@H](NC(=O)[C@H](Cc1ccccc1)NC(=O)[C@H](C)NC(=O)C(C)(C)NC(=O)[C@H](CCC(N)=O)NC(=O)[C@H](C)NC(=O)[C@H](CCCCNC(=O)COCCOCCNC(=O)COCCOCCNC(=O)CC[C@H](NC(=O)CCCCCCCCCCCCCCCCCCC(=O)O)C(=O)O)NC(=O)[C@H](CCC(=O)O)NC(=O)[C@H](CC(=O)O)NC(=O)[C@H](CC(C)C)NC(=O)[C@](C)(CC(C)C)NC(=O)[C@@H](NC(=O)[C@H](CO)NC(=O)[C@H](Cc1ccc(O)cc1)NC(=O)[C@H](CC(=O)O)NC(=O)[C@H](CO)NC(=O)[C@@H](NC(=O)[C@](C)(Cc1ccccc1)NC(=O)[C@@H](NC(=O)CNC(=O)[C@H](CCC(=O)O)NC(=O)C(C)(C)NC(=O)[C@@H](N)Cc1ccc(O)cc1)[C@@H](C)O)[C@@H](C)O)[C@@H](C)CC)[C@@H](C)CC)C(=O)N[C@@H](CCC(=O)O)C(=O)NCC(=O)NCC(N)=O [Example 100] (H-Y[Aib]EGT[αMeF]TSDYSI[αMeL]LDEK([AEEA-AEEA-γGlu-C20 diacid])AQ[Aib]AFIEYLIEGG-NH2; N-terminus assumed) | 4.13 nM | 0.12 nM | 0.079 nM | 44 nM | 0.115 nM |
